Data taken from patent US20240142438A1, “MULTI-ORGAN MODEL” (CELLARTGEN INC., priority 2021, published 2024).
“Also recorded” adds a separate entry of the source.

Legend:
[1] = test system: liver organoid; assay: Candidate drugs on liver organoid in multi-organ NASH organoid model (chip); type: cell-based, mouse; settings: oleic acid 500 μM + drug 50 μM, 3 days; for low-density cholesterol (LDL) levels in the liver organoids: cholesterol analysis of disrupted organoids, vs No Treatment (NT)
Description: (§1) A multi-organ NASH model was constructed by applying not only conventional Matrigel, a commercially available culture scaffold, but also a decellularized tissue-derived hydrogel scaffold to culture of each organoid in a multi-organ device. Liver and pancreas organoids were obtained by extracting adult stem cells from a mouse tissue, encapsulated in a decellularized liver tissue-derived matrix (6 mg/ml) and a decellularized pancreas tissue-derived matrix (4 mg/ml), respectively, at a cell density of 70,000 cells/30 μL gel, and cultured. An intestinal organoid was obtained by extracting intestinal crypts from a mouse intestinal tissue and encapsulated in a decellularized intestinal tissue-derived matrix (2 mg/ml) at a cell density of 800 crypts/30 μL gel, and cultured. […] The cardiac organoid was cultured on a hydrogel (20 organoids/70 μL gel bed) prepared by crosslinking of a decellularized cardiac tissue-derived matrix (5 mg/ml) in the form of a 70 μL gel bed at the bottom of the device. The decellularized matrix for culturing each organoid was applied at the optimal concentration for differentiation of each organoid as determined through previous research.
Obeticholic acid (OCA), a semi-synthetic bile acid analog, is an agonist for FXR (farnesoid X receptor) to regulate bile acid metabolism, inflammation, fibrosis, and sugar/lipid metabolism. […] Elafibranor (Ela), a dual agonist for PPARα/δ, is a drug that inhibits fatty acid biosynthesis and glucose biosynthesis in the liver and has been used as a drug for cardiometabolic diseases. Liraglutide (Lira), an agonist for glucagon-like peptide-1 (GLP-1), is a drug that has been used to treat diabetes.

[2] = test system: intestinal organoid; assay: Candidate drugs on intestinal organoid in multi-organ NASH organoid model (chip); type: cell-based, mouse; settings: oleic acid 500 μM + drug 50 μM, 3 days in liver chamber
Description: as §1

[3] = test system: cardiac organoid; assay: Candidate drugs on cardiac organoid in multi-organ NASH organoid model (chip); type: cell-based, mouse; settings: oleic acid 500 μM + drug 50 μM, 3 days in liver chamber
Description: as §1

[4] = test system: pancreas organoid; assay: Candidate drugs on pancreas organoid in multi-organ NASH organoid model (chip); type: cell-based, mouse; settings: oleic acid 500 μM + drug 50 μM, 3 days in liver chamber
Description: as §1

[5] = test system: human iPSC-derived liver organoids; assay: Candidate drugs on hiPSC-derived liver organoids in multi-organ NASH model; type: cell-based; settings: oleic acid 500 μM + drug 50 μM, 3 days
Description: Human iPSC-derived liver organoids were differentiated into hepatic endoderm cells through endoderm, and then a total of 500,000 cells including the hepatic endoderm cells, vascular endothelial cells (HUVEC) and mesenchymal stem cells (hMSC) at a ratio of 10:7:2 were mixed in 10 μL of culture medium. The mixture was coated onto 10 μL of a decellularized liver tissue-derived matrix (LEM) to induce the formation of three-dimensional organoids. […] Human iPSC-derived pancreas organoids were differentiated into beta cells through endoderm, gut endoderm, pancreatic endoderm, and pancreatic progenitor cells, and then a total of 500,000 cells including the beta cells, vascular endothelial cells (HUVEC) and mesenchymal stem cells (hMSC) at a ratio of 10:7:2 were mixed in 10 μL of culture medium. The mixture was coated onto 10 μL of a decellularized pancreas tissue-derived matrix (PEM) to induce the formation of three-dimensional organoids. […] Each organoids cultured in a decellularized tissue-derived matrix was seeded into a multi-organ microfluidic device and then cultured in a normal culture medium suitable for each organ for 2 days. Then, the NASH group was treated with oleic acid (500 μM) and cultured for 3 days only in the chamber in which the liver organoid was cultured, and the groups treated with the respective drugs were treated with oleic acid (500 μM) and the respective drugs (50 μM) for 3 days in the chamber in which the liver organoid was cultured. A multi-organ device in which a normal liver organoid (Normal) not treated with the fatty acid was used as a control group.

[6] = test system: human iPSC-derived pancreas organoids; settings: immunofluorescence staining; oleic acid 500 μM + drug 50 μM, 3 days in liver chamber
Description: Human iPSC-derived liver organoids were differentiated into hepatic endoderm cells through endoderm, and then a total of 500,000 cells including the hepatic endoderm cells, vascular endothelial cells (HUVEC) and mesenchymal stem cells (hMSC) at a ratio of 10:7:2 were mixed in 10 μL of culture medium. The mixture was coated onto 10 μL of a decellularized liver tissue-derived matrix (LEM) to induce the formation of three-dimensional organoids. […] Human iPSC-derived pancreas organoids were differentiated into beta cells through endoderm, gut endoderm, pancreatic endoderm, and pancreatic progenitor cells, and then a total of 500,000 cells including the beta cells, vascular endothelial cells (HUVEC) and mesenchymal stem cells (hMSC) at a ratio of 10:7:2 were mixed in 10 μL of culture medium. The mixture was coated onto 10 μL of a decellularized pancreas tissue-derived matrix (PEM) to induce the formation of three-dimensional organoids. […] Each organoids cultured in a decellularized tissue-derived matrix was seeded into a multi-organ microfluidic device and then cultured in a normal culture medium suitable for each organ for 2 days. […]

[7] = test system: human iPSC-derived intestinal organoids; settings: immunofluorescence staining, oleic acid 500 μM + drug 50 μM, 3 days in liver chamber
Description: (§2) Human iPSC-derived intestinal organoids were differentiated into hindgut spheroids through endoderm, encapsulated in Matrigel, and matured for about 20 to 30 days. The mature intestinal organoids were extracted from Matrigel, re-encapsulated in a decellularized intestinal tissue-derived matrix
(§3) (IEM), and further cultured. […] Human iPSC-derived cardiac organoids were induced to mature into cardiomyocytes through mesenchyma and cardiac progenitor cells, and then 400,000 cells were mixed in 20 μL of a decellularized heart tissue-derived matrix (HEM) to prepare three-dimensional organoids. […] Each organoids cultured in a decellularized tissue-derived matrix was seeded into a multi-organ microfluidic device and then cultured in a normal culture medium suitable for each organ for 2 days. Then, the NASH group was treated with oleic acid (500 μM) and cultured for 3 days only in the chamber in which the liver organoid was cultured, and the groups treated with the respective drugs were treated with oleic acid (500 μM) and the respective drugs (50 μM) for 3 days in the chamber in which the liver organoid was cultured. A multi-organ device in which a normal liver organoid (Normal) not treated with the fatty acid was used as a control group.

[8] = test system: human iPSC-derived cardiac organoids; settings: immunofluorescence staining; oleic acid 500 μM + drug 50 μM, 3 days in liver chamber
Description: as §2, §3

CSc1ccc(C(=O)/C=C/c2cc(C)c(OC(C)(C)C(=O)O)c(C)c2)cc1 [Ela, Elafibranor]
low-density cholesterol (LDL) levels in the liver organoids [1]: an improvement in LDL levels compared to the No Treatment (NT) group; also recorded: a greater improvement than Lira | expression level of α-SMA, a fibrosis marker (fibrosis) ([1]; immunofluorescence staining): improved the most | COL1A1 expression ([1]; quantitative PCR): remarkably effective in reducing the increased expression of COL1A1 | expression levels of HNF4A and ALB, hepatic differentiation markers ([1]; quantitative PCR): no significant effect on hepatic differentiation and functional recovery | expression of α-SMA and COL1A1, fibrosis and drug toxicity-related markers ([1]; quantitative PCR): improved | expression level of OCLN, a tight junction marker of the gut barrier ([2]; quantitative PCR): not improved | expression levels of CHGA and MUC2, intestinal differentiation markers ([2]; quantitative PCR): not much recovered; also recorded: lower in the Ela-treated group than in No Treatment (NT) group | expression of CTNT and F-actin, myocardial differentiation and actin-filament markers ([3]; immunostaining): recovered to some extent | expression level of ACTC1, a cardiac differentiation marker ([3]; quantitative PCR): recovered

O=C1[C@H](CC[C@H](O)c2ccc(F)cc2)[C@@H](c2ccc(O)cc2)N1c1ccc(F)cc1 [Eze, Ezetimibe]
low-density cholesterol (LDL) levels in the liver organoids [1]: significantly lower than those in the No Treatment (NT) group | expression levels of HNF4A and ALB, hepatic differentiation markers ([1]; quantitative PCR): recovered to some extent | expression of α-SMA and COL1A1, fibrosis and drug toxicity-related markers ([1]; quantitative PCR): improved | expression of NPC1L1 ([2]; immunostaining): the most significant decrease in expression | expression level of OCLN, a tight junction marker of the gut barrier ([2]; quantitative PCR): recovered to some extent | expression levels of CHGA and MUC2, intestinal differentiation markers ([2]; quantitative PCR): not much recovered | gene expression of FGF15 in the intestinal organoid ([2]; quantitative PCR): recovered to some extent | expression level of KRT19, a pancreatic exocrine cell marker ([4]; quantitative PCR): recovered to some extent | expression level of PDX1, an endocrine cell marker ([4]; quantitative PCR): not recovered | expression level of ACTC1, a cardiac differentiation marker ([3]; quantitative PCR): limitations in improving cardiac differentiation/functionality | expression level of FGF19 ([5]; immunofluorescence staining): recovered only in the OCA-treated group | expression level of α-SMA, a fibrosis and drug toxicity-related marker ([5]; immunofluorescence staining): decreased to some extent | fatty acid accumulation (BODIPY staining) [5]: partially decreased | structure of the liver organoids ([5]; optical microscopy): some of the cells in the outer part died | expression levels of insulin and NKX6.1, pancreatic differentiation markers [6]: less significantly recovered | expression level of NPC1L1 [7]: decreased | expression level of the differentiation marker, MUC2 ([7]; vs No Treatment group): recovered to some extent | expression levels of CTNT and F-actin, myocardial differentiation and actin-filament markers [8]: recovered to some extent

CCCCCCCCCCCCCCCC(=O)N[C@@H](CCC(=O)NCCCC[C@H](NC(=O)[C@H](C)NC(=O)[C@H](C)NC(=O)[C@H](CCC(N)=O)NC(=O)CNC(=O)[C@H](CCC(=O)O)NC(=O)[C@H](CC(C)C)NC(=O)[C@H](Cc1ccc(O)cc1)NC(=O)[C@H](CO)NC(=O)[C@H](CO)NC(=O)[C@@H](NC(=O)[C@H](CC(=O)O)NC(=O)[C@H](CO)NC(=O)[C@@H](NC(=O)[C@H](Cc1ccccc1)NC(=O)[C@@H](NC(=O)CNC(=O)[C@H](CCC(=O)O)NC(=O)[C@H](C)NC(=O)[C@@H](N)Cc1cnc[nH]1)[C@@H](C)O)[C@@H](C)O)C(C)C)C(=O)N[C@@H](CCC(=O)O)C(=O)N[C@@H](Cc1ccccc1)C(=O)N[C@H](C(=O)N[C@@H](C)C(=O)N[C@@H](Cc1c[nH]c2ccccc12)C(=O)N[C@@H](CC(C)C)C(=O)N[C@H](C(=O)N[C@@H](CCCNC(=N)N)C(=O)NCC(=O)N[C@@H](CCCNC(=N)N)C(=O)NCC(=O)O)C(C)C)[C@@H](C)CC)C(=O)O [Lira, Liraglutide]
gut barrier and budding of the intestinal organoid ([2]; optical microscopy): the gut barrier was maintained to some extent but organoid budding hardly occurred | epithelial lumen of the pancreas organoids ([4]; optical microscopy): increased in thickness, showing the pattern of early fibrosis | expression level of α-SMA, a fibrosis and drug toxicity-related marker ([4]; quantitative PCR): pancreatitis and fibrosis were reduced | expression level of α-SMA, a fibrosis and drug toxicity-related marker ([3]; immunostaining): fibrosis was not improved | shape of the cardiac organoids ([3]; optical microscopy): some cells inside the organoids died, inducing severe cardiotoxicity | expression level of α-SMA, a fibrosis and drug toxicity-related marker (fibrosis) ([3]; quantitative PCR): fibrosis tended to worsen
